The values that follow come from patent publication US9055743B2, “Alpha, beta-unsaturated imines” (BAYER INTELLECTUAL PROPERTY GMBH, priority 2010, dated 2015).

Holding throughout (format): in vivo
Test [1] concerns cat fleas (Ctenocephalides felis, fully sensitive laboratory strain). Put plainly: Contact test against fleas in-vitro (CTECFE contact). Conditions: 500 g/ha, after 48 h. The protocol: Contact Test Against Fleas In-Vitro (CTECFE Contact)
An amount of 0.9 mg of active compound is weighed out, and 1 ml of acetone is added.
Of this acetone solution, either […] are transferred directly into roll-necked test tubes or an aliquot is diluted with 4 parts of acetone 1:5. For its part, 250 μl of this dilution are pipetted into roll-necked test tubes, or the dilution is diluted further, etc., until the desired number of dilution steps is reached.
The roll-necked test tubes containing the solution of the active compound in acetone are immediately coated in a fume cupboard by 2 h of swing rotation at 30 rpm. After evaporation of the solvent, the active compound contained in the acetone gives, at the highest concentration tested, an active compound content of 500 g/ha (or 500 μg/dm^2) on the surface of the test tube.
10-20 Adult cat fleas (Ctenocephalides felis, fully sensitive laboratory strain) anesthetized with CO2 are transferred into the test tubes prepared in this manner, and the test tubes are closed with a plastic roll-necked lid provided with fine holes.
The test tubes are stored vertically at room temperature and humidity for 24 or 48 h. After 24 and 48 h, the activity of the active compound applied is determined by comparison with an acetone-treated control. Here, an observed normal activity for all fleas corresponds to 0% activity, a strongly restricted or uncoordinated (knock-down) movement or death of all fleas corresponds to 100% activity.

The test system of test [2] is caterpillars of the army worm (Spodoptera frugiperda). The test is described as follows: Spodoptera frugiperda test (SPODFR spray treatment). The note with it: 500 g/ha, spray, after 7 days. Summed up: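 Maize leaf discs sprayed with compound formulated in acetone/dimethylformamide plus alkylaryl polyglycol ether emulsifier and diluted in water, then infested with Spodoptera frugiperda caterpillars once dry. Mortality scored after 7 days as % activity, where 100% means all caterpillars killed.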

Test [3] has as its system Boophilus microplus. Put plainly: Boophilus microplus test (BOOPMI injection). Conditions: 20 μg/animal, injection into the abdomen, after 7 days. Here is the method: Boophilus microplus Test (BOOPMI Injection)
(§1) Solvent: Dimethyl Sulphoxide
To produce a suitable preparation of active compound, 10 mg of active compound are mixed with 0.5 ml of solvent and the concentrate is diluted with solvent to the desired concentration. The solution of active compound is injected into the abdomen (Boophilus microplus), and the animals are transferred into dishes and kept in a climatized room. The activity is assessed by […] of fertile eggs.
After 7 days, the effect in % is determined 100% means that none of the ticks has laid any fertile eggs.

Test [4] deals with green peach aphid (Myzus persicae). Put plainly: Myzus test (MYZUPE spray treatment). The note with it: 500 g/ha, spray, after 6 days. Summed up: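 Chinese cabbage leaf discs infested with all aphid stages were sprayed with compound in acetone/DMF with emulsifier, diluted in emulsifier-containing water. Mortality in % assessed after 6 days (100% = all aphids killed).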
Test [5] concerns greenhouse red spider mite (Tetranychus urticae). The test is described as follows: Tetranychus test; OP-resistant (TETRUR spray treatment). The note with it: 500 g/ha, spray, after 6 days. Summed up:
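Bean leaf discs infested with all stages of OP-resistant Tetranychus urticae were sprayed with compound in acetone/DMF with alkylaryl polyglycol ether emulsifier, diluted in emulsifier-water. Mortality was scored after 6 days: 100% means all mites killed, 0% none.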

Test [6] has as its system Anopheles gambiae (homocygus kdr). Put plainly: Anopheles test (ANPHGB surface treatment). Conditions: for knock-down activity: 100 mg/m^2, two hours after contact, exposition 30 minutes. Summed up: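 Compound dissolved in acetone at 2 mg/ml, pipetted onto glazed tile and dried; adult kdr-homozygous mosquitoes exposed on the tile for 30 min. Knock-down (%) read 2 h and mortality (%) 24 h after contact.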

For test [7], the system named is Lucilia cuprina larvae. Put plainly: Lucilia cuprina test (LUCICU). Conditions: 100 ppm, after 2 days. The protocol:
Lucilia cuprina Test (LUCICU)
as §1
To produce a suitable preparation of active compound, 10 mg of active compound are mixed with 0.5 ml of dimethyl sulphoxide and the concentrate is diluted with water to the desired concentration. Vessels containing horsemeat treated with the active compound preparation of the desired concentration are populated with about 20 Lucilia cuprina larvae.
After 2 days, the kill in % is determined. 100% means that all larvae have been killed; 0% means that none of the larvae have been killed.

Test [8] deals with Ctenocephalides felis. The test is described as follows: Ctenocephalides felis oral test (CTECFE). The note with it: 100 ppm in citrated cattle blood, after two days. Here is the method: Ctenocephalides Felis Oral Test (CTECFE)
Solvent: 1 Part by Weight of Dimethyl Sulphoxide
To produce a suitable preparation of active compound, 10 mg of active compound are mixed with 0.5 ml of dimethyl sulphoxide. Part of the concentrate is diluted with citrated cattle blood, and the desired concentration is prepared.
About 20 unfed adult fleas (Ctenocephalides felis) are placed into a chamber which is closed at the top and bottom with gauze. A metal cylinder whose bottom end is closed with parafilm is placed onto the chamber. The cylinder contains the blood/active compound preparation, which can be taken up by the fleas through the parafilm membrane. After two days, the kill in % is determined 100% means that all fleas have been killed; 0% means that none of the fleas have been killed.

In test [9] the test system is larvae of the mustard beetle (Phaedon cochleariae). Put plainly: Phaedon test (PHAECO spray treatment). The note with it: 500 g/ha, spray, after 7 days. Summed up: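 Chinese cabbage leaf discs sprayed with compound formulated in acetone/dimethylformamide with alkylaryl polyglycol ether emulsifier, diluted in emulsifier-containing water to the desired concentration. After drying, discs were populated with mustard beetle larvae.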

Turning to `Cc1ccc(N=C2C(=CSc3cc(F)cc(F)c3)CCc3ccccc32)cc1` [Example 1-81], the “activity against cat fleas” value in [1] worked out at 100%. The “activity (caterpillars killed)” value in test [2] amounted to 100%. In test [3], the “activity (100% = none of the ticks has laid any fertile eggs)” value came out at 100%. Further, the “activity (aphids killed)” value in test [4] was 100%. In addition, the “activity (spider mites killed)” value in test [5] was 100%. This compound also registered a knock-down activity in [6] of 100%. Moreover, the “activity (kill in %)” value in test [7] and in test [8] was 100% throughout. In addition, the “activity (beetle larvae killed)” value in test [9] is given as 100%.

In the case of `Cc1ccc(N=C2C(=CSc3ccc(F)cc3)C(C)c3cc(C)ccc32)c(C)c1` (mixture of isomers) [Example 1-85], in test [1], the “activity against cat fleas” value was 100%. Moreover, the “activity (caterpillars killed)” value in [2] was 100%. Further, the “activity (100% = none of the ticks has laid any fertile eggs)” value in [3] stood at 100%. Further, the “activity (aphids killed)” value in test [4] came to 100%. The “activity (spider mites killed)” value in test [5] was determined as 100%. Moreover, the knock-down activity in test [6] was found to be 100%. Moreover, the figures for the “activity (kill in %)” value in [7] and in test [8] were 100% and 90%, respectively. In addition, in test [9], the “activity (beetle larvae killed)” value amounted to 100%.

`Cc1ccc(N=C2C(=CSc3ccccc3Cl)CCc3ccccc32)cc1` [Example 1-69]: the “activity against cat fleas” value in [1] worked out at 100%. Further, the “activity (caterpillars killed)” value in test [2] was found to be 100%. In addition, in test [3], the “activity (100% = none of the ticks has laid any fertile eggs)” value is recorded as 100%. In addition, the “activity (aphids killed)” value in test [4] was determined as 90%. For the same compound, the “activity (spider mites killed)” value in test [5] is recorded as 100%. The compound further returned a knock-down activity in [6] of 90%. For the same compound, the “activity (kill in %)” value in test [7] and in test [8] was 100% throughout. Further, the “activity (beetle larvae killed)” value in test [9] turned out to be 100%.

Turning to `CC1C(=CSc2ccccc2)C(=Nc2ccc(F)cc2)c2ccccc21` (mixture of isomers) [Example 1-6], the “activity against cat fleas” value in test [1] was 100%. For the same compound, in [2], the “activity (caterpillars killed)” value is 100%. Also, the “activity (100% = none of the ticks has laid any fertile eggs)” value in test [3] was 100%. Besides, the “activity (aphids killed)” value in test [4] is 100%. The “activity (spider mites killed)” value in test [5] is given as 100%. Also, the “activity (kill in %)” value in test [7] and in test [8] was 100% each time. Besides, the “activity (beetle larvae killed)” value in [9] is reported as 100%.

Take `Cc1ccc(N=C2C(=CSc3ccc(C(F)(F)F)cc3)CCc3ccccc32)cc1` [Example 1-82]: in [1], the “activity against cat fleas” value was determined as 100%. In addition, the “activity (caterpillars killed)” value in test [2] is reported as 100%. The “activity (100% = none of the ticks has laid any fertile eggs)” value in test [3] is reported as 100%. For the same compound, the “activity (aphids killed)” value in [4] was 100%. Besides, the “activity (spider mites killed)” value in test [5] is 100%. For the same compound, the knock-down activity in test [6] was found to be 100%. Also, the “activity (kill in %)” value in [7] and in test [8] was 100% in each case. Also, the “activity (beetle larvae killed)” value in test [9] is recorded as 100%.

Regarding `Fc1ccc(N=C2/C(=C/Sc3ccccc3)CCc3ccccc32)cc1` [Example 1-3, 4-Fluoro-N-[(2E)-2-[(phenylsulphanyl)methylene]-3,4-dihydronaphthalen-1(2H)-ylidene]aniline], the “activity against cat fleas” value in test [1] is recorded as 100%. The pest or weed control at 500 g/ha worked out at 100% in test [2] (Spodoptera frugiperda, 168 h, read-out: activity (caterpillars killed)); 100% in test [4] (Myzus persicae, 144 h, read-out: activity (aphids killed)); 100% in test [5] (Tetranychus urticae, 144 h, read-out: activity (spider mites killed)); 100% in test [9] (Phaedon cochleariae, 168 h, read-out: activity (beetle larvae killed)). Also, the “activity (100% = none of the ticks has laid any fertile eggs)” value in [3] came to 100%. The same compound gave a knock-down activity in test [6] of 80%. The mortality (as a rule, the share of the test organisms that died) at 100 mg/m2 in test [6] (Anopheles gambiae, read-out: activity (mortality in %)) is 100%. Besides, the results for the “activity (kill in %)” value in test [7] and in [8] were 100% and 90%, respectively.
